# Reference: patent US20220153734A1, “Pyrazolopyridine Compounds For IRE1 Inhibition” (Optikira, LLC, priority 2019, published 2022)
# Assays:
# IRE1α [1] = molecular target: T1, IRE1α (Homo sapiens, UniProt O75460); assay: Biochemical assay to detect inhibition of kinase activity of IRE1α (ADP-Glo)
# T1 construct: purchased Signal Chem E31-11G
# Experimental: Biochemical Assays to Detect Inhibition of Kinase Activity of IRE1α
# The kinase reactions were performed in 384 well white ProxiPlate-384 Plus plates (PERKIN Elmer 6008280) using 25 mM MOPS assay buffer with 1 mM dithiothreitol, 25 mM MgCl2, 12.5 mM β-glycerophosphate, 5 mM EGTA, and 50 μg/mL BSA. Test compounds were prepared on the day of assay and dispensed using D300 digital dispenser as a 10-point ½ log dilution series in duplicate, normalized to a final DMSO concentration of 3%. Test compounds were pre-incubated for 30 min at room temperature with 10 nM IRE1α kinase (E31-11G from Signal Chem) in 2.5 μL of assay buffer and the reaction started by addition of 2.5 μL of ATP in assay buffer, to give a final ATP concentration of 100 μM and 5 nM IRE1α kinase. After 4 hours incubation at room temperature the reactions were stopped and the kinase activity determined using the ADP-Glo™ reagent from Promega, according to the manufacturer's instructions. Luminescence was measured on a luminometer (EnVision, PerkinElmer) and IC50 values calculated by fitting a sigmoidal curve to percent inhibition of control versus Log10 of compound concentration.
# [2] = system: ARPE-19 cells stably expressing XBP1 (a.a. 1-376); assay: Cellular XBP1 splicing assay (NanoLuc luciferase, thapsigargin); assay type: cell-based; settings: thapsigargin 150 nM
# Procedure, shortened: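 ARPE-19 cells carrying an XBP1(1-376)-NanoLuc splicing reporter were pretreated with compound (10-point ½-log series, 0.117% DMSO) for 30 min, then stressed with 150 nM thapsigargin for 4 h at 37° C. Luminescence was read, and IC50 values came from sigmoidal fits of percent inhibition of control.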
# IRE1α [3] = molecular target: T1, IRE1α; assay: Biochemical assay: inhibition of RNase activity of IRE1α; settings: enzyme 0.325 nM, substrate 100 nM, 20 minutes
# Procedure, shortened: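 RNase cleavage monitored as dequenching of a 5′ Alexa Fluor 647/3′ quencher RNA oligo (100 nM), stopped with 5 M urea after 20 min at room temperature. Enzyme 0.325 nM, preceded by 30 min compound pre-incubation; buffer Tris/MgCl2/KCl/DTT/Tween, 4% DMSO final. IC50 from curve fit of % inhibition.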
# T1 sequence (O75460 468-977 limits assumed): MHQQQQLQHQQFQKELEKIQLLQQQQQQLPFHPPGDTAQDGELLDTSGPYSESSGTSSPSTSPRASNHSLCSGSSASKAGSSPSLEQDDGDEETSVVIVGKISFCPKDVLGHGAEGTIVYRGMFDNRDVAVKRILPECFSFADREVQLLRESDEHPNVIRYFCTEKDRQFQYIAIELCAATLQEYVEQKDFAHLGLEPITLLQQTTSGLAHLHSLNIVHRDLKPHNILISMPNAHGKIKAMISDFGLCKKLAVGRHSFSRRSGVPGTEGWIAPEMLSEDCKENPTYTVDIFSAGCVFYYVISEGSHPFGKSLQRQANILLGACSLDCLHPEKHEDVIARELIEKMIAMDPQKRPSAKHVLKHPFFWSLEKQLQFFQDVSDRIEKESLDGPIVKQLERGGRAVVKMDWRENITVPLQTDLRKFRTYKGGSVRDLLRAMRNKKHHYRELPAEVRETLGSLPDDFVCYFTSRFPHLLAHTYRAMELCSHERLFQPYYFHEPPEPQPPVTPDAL
Structure (SMILES),IC50 (IRE1α [1]),IC50 ([2]; 4 hour),IC50 (IRE1α [3]),"IC50 ([2]; Homo sapiens, ARPE-19, 4 h)"
"CC(C)n1nc(-c2ccc(NS(=O)(=O)Cc3ccccc3F)c(F)c2)c2c(N)ncc(C3=CCC(NC4COC4)CC3)c21 (single isomer, unassigned) [Compound B2, N-(4-(4-amino-1-isopropyl-7-(4-(oxetan-3-ylamino)cyclohex-1-en-1-yl)-1H-pyrazolo[4,3-c]pyridin-3-yl)-2-fluorophenyl)-1-(2-fluorophenyl)methanesulfonamide]",1.9 nM,6.5 nM,0.8 nM,
"CC(C)n1nc(-c2cc(F)c(NS(=O)(=O)Cc3ccccc3Cl)cc2F)c2c(N)ncc(C3=CCC(NC4COC4)CC3)c21 (single isomer, unassigned) [Compound B6, N-(4-(4-amino-1-isopropyl-7-(4-(oxetan-3-ylamino)cyclohex-1-en-1-yl)-1H-pyrazolo[4,3-c]pyridin-3-yl)-2,5-difluorophenyl)-1-(2-chlorophenyl)methanesulfonamide]",5.2 nM,47 nM,5.1 nM,
"CC(C)n1nc(-c2cc(F)c(NS(=O)(=O)c3ccccc3Cl)cc2F)c2c(N)ncc(C3=CCC(NC4COC4)CC3)c21 (single isomer, unassigned) [Compound B10, N-(4-(4-amino-1-isopropyl-7-(4-(oxetan-3-ylamino)cyc1ohex-1-en-1-yl)-1H-pyrazolo[4,3-c]pyridin-3-yl)-2,5-difluorophenyl)-2-chlorobenzenesulfonamide]",7 nM,57 nM,13 nM,
"CC(C)n1nc(-c2ccc(NS(=O)(=O)Cc3ccccc3Cl)c(F)c2)c2c(N)ncc(C3=CCC(NC4COC4)CC3)c21 (single isomer, unassigned) [Compound B12, N-(4-(4-amino-1-isopropyl-7-(4-(oxetan-3-ylamino)cyclohex-1-en-1-yl)-1H-pyrazolo[4,3-c]pyridin-3-yl)-2-fluorophenyl)-1-(2-chlorophenyl)methanesulfonamide]",1.8 nM,14 nM,1.6 nM,
"CCn1nc(-c2ccc(NS(=O)(=O)Cc3ccccc3F)c(F)c2)c2c(N)ncc(C3=CCC(NC4COC4)CC3)c21 (single isomer, unassigned) [Compound B26, N-(4-(4-amino-1-ethyl-7-(4-(oxetan-3-ylamino)cyclohex-1-en-1-yl)-1H-pyrazolo[4,3-c]pyridin-3-yl)-2-fluorophenyl)-1-(2-fluorophenyl)methanesulfonamide]",4.1 nM,22 nM,2.7 nM,
"CCn1nc(-c2ccc(NS(=O)(=O)Cc3ccccc3Cl)c(F)c2)c2c(N)ncc(C3=CCC(NC4COC4)CC3)c21 (single isomer, unassigned) [Compound B28, N-(4-(4-amino-1-ethyl-7-(4-(oxetan-3-ylamino)cyclohex-1-en-1-yl)-1H-pyrazolo[4,3-c]pyridin-3-yl)-2-fluorophenyl)-1-(2-chlorophenyl)methanesulfonamide]",3.9 nM,27 nM,2.4 nM,
"CC(C)n1nc(-c2ccc(NS(=O)(=O)c3ccccc3F)c(F)c2)c2c(N)ncc(C3=CCC(NC4COC4)CC3)c21 (single isomer, unassigned) [Compound B59, N-(4-(4-amino-1-isopropyl-7-(4-(oxetan-3-ylamino)cyclohex-1-en-1-yl)-1H-pyrazolo[4,3-c]pyridin-3-yl)-2-fluorophenyl)-2-fluorobenzenesulfonamide]",5.9 nM,36 nM,,
"CC(C)n1nc(-c2ccc(NS(=O)(=O)c3ccccc3F)c(F)c2)c2c(N)ncc([C@H]3CC[C@H](NC4COC4)CC3)c21 [Compound A1, N-(4-(4-amino-1-isopropyl-7-((1r,4r)-4-(oxetan-3-ylamino)cyclohexyl)-1H-pyrazolo[4,3-c]pyridin-3-yl)-2-fluorophenyl)-2-fluorobenzenesulfonamide]",1.9 nM,,5.7 nM,7.9 nM
"CC(C)n1nc(-c2ccc(NS(=O)(=O)c3ccccc3Cl)c(F)c2)c2c(N)ncc([C@H]3CC[C@H](NC4COC4)CC3)c21 [Compound A34, N-(4-(4-amino-1-isopropyl-7-((1r,4r)-4-(oxetan-3-ylamino)cyclohexyl)-1H-pyrazolo[4,3-c]pyridin-3-yl)-2-fluorophenyl)-2-chlorobenzenesulfonamide]",3 nM,,3.5 nM,4.3 nM
"Nc1ncc([C@H]2CC[C@H](NC3COC3)CC2)c2c1c(-c1ccc(NS(=O)(=O)c3ccccc3F)c(F)c1)nn2C1CC1 [Compound A41, N-(4-(4-amino-1-cyclopropyl-7-((1r,4r)-4-(oxetan-3-ylamino)cyclohexyl)-1H-pyrazolo[4,3-c]pyridin-3-yl)-2-fluorophenyl)-2-fluorobenzenesulfonamide]",4.3 nM,,8 nM,16 nM
"CCn1nc(-c2cc(F)c(NS(=O)(=O)Cc3ccccc3Cl)cc2F)c2c(N)ncc([C@H]3CC[C@H](NC4COC4)CC3)c21 [Compound A42, N-(4-(4-amino-1-ethyl-7-((1r,4r)-4-(oxetan-3-ylamino)cyclohexyl)-1H-pyrazolo[4,3-c]pyridin-3-yl)-2,5-difluorophenyl)-1-(2-chlorophenyl)methanesulfonamide]",3 nM,,3.2 nM,19 nM
"CCn1nc(-c2cc(F)c(NS(=O)(=O)Cc3ccccc3F)cc2F)c2c(N)ncc([C@H]3CC[C@H](NC4COC4)CC3)c21 [Compound A43, N-(4-(4-amino-1-ethyl-7-((1r,4r)-4-(oxetan-3-ylamino)cyclohexyl)-1H-pyrazolo[4,3-c]pyridin-3-yl)-2,5-difluorophenyl)-1-(2-fluorophenyl)methanesulfonamide]",3.2 nM,,5.4 nM,52 nM
"CCn1nc(-c2cc(F)c(NS(=O)(=O)c3ccccc3Cl)cc2F)c2c(N)ncc([C@H]3CC[C@H](NC4COC4)CC3)c21 [Compound A44, N-(4-(4-amino-1-ethyl-7-((1r,4r)-4-(oxetan-3-ylamino)cyclohexyl)-1H-pyrazolo[4,3-c]pyridin-3-yl)-2,5-difluorophenyl)-2-chlorobenzenesulfonamide]",2.8 nM,,8.2 nM,31 nM
"CCn1nc(-c2cc(F)c(NS(=O)(=O)c3ccccc3F)cc2F)c2c(N)ncc([C@H]3CC[C@H](NC4COC4)CC3)c21 [Compound A45, N-(4-(4-amino-1-ethyl-7-((1r,4r)-4-(oxetan-3-ylamino)cyclohexyl)-1H-pyrazolo[4,3-c]pyridin-3-yl)-2,5-difluorophenyl)-2-fluorobenzenesulfonamide]",6.5 nM,,16 nM,94 nM
CC(C)n1nc(-c2ccc(NS(=O)(=O)c3ccccc3F)c(F)c2)c2c(N)ncc([C@H]3CC[C@H](N(C)C4COC4)CC3)c21 [Compound A46],3.6 nM,,7.7 nM,8.4 nM
"CC(C)n1nc(-c2cc(F)c(NS(=O)(=O)Cc3ccccc3Cl)cc2F)c2c(N)ncc([C@H]3CC[C@H](NC4COC4)CC3)c21 [Compound A47, N-(4-(4-amino-1-isopropyl-7-((1r,4r)-4-(oxetan-3-ylamino)cyclohexyl)-1H-pyrazolo[4,3-c]pyridin-3-yl)-2,5-difluorophenyl)-1-(2-chlorophenyl)methanesulfonamide]",2 nM,,1.3 nM,5.6 nM
"CC(C)n1nc(-c2cc(F)c(NS(=O)(=O)Cc3ccccc3F)cc2F)c2c(N)ncc([C@H]3CC[C@H](NC4COC4)CC3)c21 [Compound A48, N-(4-(4-amino-1-isopropyl-7-((1r,4r)-4-(oxetan-3-ylamino)cyclohexyl)-1H-pyrazolo[4,3-c]pyridin-3-yl)-2,5-difluorophenyl)-1-(2-fluorophenyl)methanesulfonamide]",1.6 nM,,1.9 nM,6.4 nM
"CC(C)n1nc(-c2cc(F)c(NS(=O)(=O)c3ccccc3Cl)cc2F)c2c(N)ncc([C@H]3CC[C@H](NC4COC4)CC3)c21 [Compound A49, N-(4-(4-amino-1-isopropyl-7-((1r,4r)-4-(oxetan-3-ylamino)cyclohexyl)-1H-pyrazolo[4,3-c]pyridin-3-yl)-2,5-difluorophenyl)-2-chlorobenzenesulfonamide]",2.1 nM,,6 nM,4.3 nM
"CC(C)n1nc(-c2cc(F)c(NS(=O)(=O)c3ccccc3F)cc2F)c2c(N)ncc([C@H]3CC[C@H](NC4COC4)CC3)c21 [Compound A50, N-(4-(4-amino-1-isopropyl-7-((1r,4r)-4-(oxetan-3-ylamino)cyclohexyl)-1H-pyrazolo[4,3-c]pyridin-3-yl)-2,5-difluorophenyl)-2-fluorobenzenesulfonamide]",3.3 nM,,6.9 nM,17 nM
